The values that follow come from patent US7173004B2, “Macrocyclic isoquinoline peptide inhibitors of hepatitis C virus” (Bristol-Myers Squibb Company, priority 2003, dated 2007).

A word on the EC50: it is the concentration that produces a half-maximal response.

For one experiment, the system named is HCV replicon. As to the kind of experiment: Two-drug combination matrix studies in HCV replicon system, Universal Response Surface Approach (URSA). To be noted: for EC50: Hepatitis C virus. In kind it is cell-based. The protocol:
In addition to the combination index approach, above, the Universal Response Surface Approach (URSA) was also used to assess the antiviral effects of combinations of NS5A or NS5B inhibitors with the NS3 protease inhibitor. The experiments were conducted in a matrixed format with 8 concentrations of NS3 protease inhibitor crossed against 10 concentrations of NS5A or NS5B inhibitor on each of three plates. 200× stock solutions of each inhibitor concentration were prepared by 3-fold dilution in DMSO. Effects on replication were assessed in the HCV replicon system as described above. The data was analyzed using the URSA as described in Greco, Park and Rustum (Greco, Park, Sook, and Rustum (1990) Application of a New Approach for the Quantitation of Drug Synergism to the Combination of cis-Diamminedichloroplatinum and 1-β-D-Arabinofuranosylcytosine, Cancer Research, 50, 5318–5327). The interaction of the two drugs was assessed by using non-linear regression with a bisection algorithm. Seven parameters were estimated. These include the minimal response or response in the absence of drug, the maximal response or response in the presence of infinite drug, EC50's for the two drugs, slope parameters for the two drugs, and the drug interaction parameter α which provides the assessment of synergism, antagonism or additivity. Additivity is implied when α is equal to zero, synergy if the interaction parameter is larger than zero, and antagonism when the interaction parameter is less than zero. The confidence interval for the interaction parameter is also presented. This interval is used to test for departure from additivity by comparing the bounds to zero—a lower bound of the interval greater than zero indicates synergy, an upper bound of less than zero indicates antagonism, and a value of zero contained in the interval indicates additivity.

Experiment [1] deals with HCV replicon (HCV 1b-377-neo replicon cells, Huh7). Description: HCV replicon cell-based FRET assay. Conditions: Hepatitis C virus, Huh-7. In a few lines: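 Huh7 cells carrying a neo-selectable genotype 1b HCV replicon (~3,000 RNA copies/cell) were seeded at 1.5×10^4 cells/well and treated 4 days at 37 °C (0.5% DMSO final). CC50 was read by alamar Blue (4 h, ex 530/em 580 nm). Lysates with 10 μM EDANS/DABCYL NS3 protease FRET peptide were read kinetically (ex 340/em 490 nm, 25 °C, ~15 min) for % inhibition.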

The mark [2] stands for this setting: compound 28 combined with NS5A inhibitor, matrix study (Table 10).
Where [3] appears, read: compound 28 combined with NS5B inhibitor, Expt 1.
[4] abbreviates: compound 28 combined with NS5B inhibitor, Expt 2.

Regarding `COc1ccc2c(OC3CC4C(=O)NC5(C(=O)NS(=O)(=O)C6CC6)CC5C=CCOCCCC(NC(=O)OC(C)(C)C)C(=O)N4C3)nccc2c1` (stereo not shown) [Compound 28, [4-Cyclopropanesulfonylaminocarbonyl-18-(6-methoxy-isoquinolin-1-yloxy)-2,15-dioxo-10-oxa-3,16-diaza-tricyclo[14.3.0.0^4,6]nonadec-7-en-14-yl]-carbamic acid tert-butyl ester], the EC50 in the experiment on HCV replicon (matrix study with NS5A inhibitor, URSA estimate (Table 10)) was 0.009 µM; in the experiment with HCV replicon (matrix study with NS5B inhibitor, Expt 1 (Table 11)), 0.015 µM; with HCV replicon (matrix study with NS5B inhibitor, Expt 2 (Table 11)), 0.02 µM; in experiment [1], < 0.05 µM. For the same molecule, the Interaction parameter alpha with HCV replicon (setting [2]) is given as 0.63; in the experiment on HCV replicon (setting [3]), 0.47; with HCV replicon (setting [4]), 0.31. Further, the “Overall Result” value with HCV replicon (setting [2]) is reported as “Additivity”; in the experiment on HCV replicon (compound 28 combined with NS5A inhibitor, matrix study (Table 10), listed as compound 28), “additivity”; in the experiment on HCV replicon (setting [3]) it was “Additivity”; with HCV replicon (setting [4]), “Additivity”. The “combination effect with the HCV NS5B inhibitor, matrix format” value in the experiment on HCV replicon (two experiments) is listed as “overall additivity”.

Molecule `CC(C)(C)OC(=O)N[C@H]1CN(S(=O)(=O)c2ccccc2[N+](=O)[O-])CCC/C=C\[C@@H]2C[C@@]2(C(=O)O)NC(=O)[C@@H]2C[C@@H](Oc3nccc4ccccc34)CN2C1=O` [Compound 144] came in with an EC50 in experiment [1] of 5 to 50 µM.
